Target: T1, glutaminase (GAC) (Homo sapiens, UniProt O94925)
T1 sequence (O94925 55-598 isoform O94925-3 limits assumed): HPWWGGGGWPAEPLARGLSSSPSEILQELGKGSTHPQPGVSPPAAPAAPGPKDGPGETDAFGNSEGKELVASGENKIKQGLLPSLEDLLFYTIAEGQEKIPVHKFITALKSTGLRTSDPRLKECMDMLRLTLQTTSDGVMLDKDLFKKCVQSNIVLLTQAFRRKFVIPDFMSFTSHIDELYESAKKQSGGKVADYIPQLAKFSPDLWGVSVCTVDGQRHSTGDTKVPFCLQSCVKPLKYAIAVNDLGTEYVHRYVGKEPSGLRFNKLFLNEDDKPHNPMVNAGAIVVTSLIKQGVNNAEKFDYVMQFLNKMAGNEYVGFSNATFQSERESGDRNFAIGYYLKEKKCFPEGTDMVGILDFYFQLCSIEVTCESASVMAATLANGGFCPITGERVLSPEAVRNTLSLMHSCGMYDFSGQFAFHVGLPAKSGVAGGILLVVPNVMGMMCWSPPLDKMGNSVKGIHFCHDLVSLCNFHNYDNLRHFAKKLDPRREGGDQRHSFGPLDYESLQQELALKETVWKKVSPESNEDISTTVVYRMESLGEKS
Experiment: Glutaminase coupled endpoint enzymatic assay (Example A)
Type: biochemical
Settings: inhibition of glutaminase; assay of Example A or Example B
Text: In certain embodiments, exemplary compounds of Formula I include the compounds described in Table 1 and in the Examples. A compound described herein may be tested for its ability to inhibit glutaminase, e.g., by an assay as described in the Examples. For simplicity, the inhibition activity of these compounds is represented as an IC50 tested in an assay of Example A or Example B in Table 1. […] “N/A” refers to compounds wherein the IC50 is unavailable.
In this example, the enzymatic activity of glutaminase is measured through a coupled endpoint assay. Glutamine and phosphate are supplied to GAC at a concentration equal to Km and AC50, respectively, and GAC concentration is adjusted to give a linear reaction for 60 minutes. The glutamate produced is converted to 2-OG by a kinetic excess of glutamate dehydrogenase. This second step is configured for 2×Km for NAD, since excess NAD is inhibitory. However, a kinetic excess of the third coupling enzyme, diaphorase, recycles NAD from NADH to keep the NAD concentration constant during the timecourse of the assay. Diaphorase, also supplied in kinetic excess, oxidizes NADH produced by GDH back to NAD with the concomitant reduction of rezasurin to the highly fluorescent resorufin. Resorufin in measured after the assay is stopped with SDS by Ex544/Em590. A reduction in the signal indicates inhibition of some component of the coupled enzyme system. Prospective hits are counterscreened against GDH/diaphorase alone to remove hits to the coupling enzyme system in a second assay.
2. Buffers • 2× Buffer (300 mM NaCl, 100 mM HEPES pH 8.5, 0.1% BSA, 0.5 mM EDTA, 100 mM sodium phosphate pH 8.5) • 5× Substrate Mix (1× Buffer final concentration, with 13 mM glutamine, 100 μM resazurin, 50 μg/ml diaphorase) • 1.2× Enzyme Mix (1× Buffer final concentration, with 0.875 μg/ml GAC, 1.56 mM NAD, 6.25 units/ml GDH) • Stop Mix (6% SDS in ddH2O) Reaction Procedure • 1. Add 1 μl compound in 100% DMSO • 2. Add 40 μl of Enzyme Mix and incubate for 60 minute at room temperature • 3. Add 10 μl of Substrate Mix to start reaction • 4. Stop reaction with 25 μl of 6% SDS and read Ex544 Em 590

Structure (SMILES) | IC50
O=C(Cc1ccccc1)Nc1nnc(C[C@H]2C[C@@H]2Cc2nnc(NC(=O)Cc3ccccc3)s2)s1 (racemic) [Compound 1, N,N′-(5,5′-(trans-cyclopropane-1,2-diylbis(methylene))bis(1,3,4-thiadiazole-5,2-diyl))bis(2-phenylacetamide)] | 100 to 500 nM
O=C(Cc1cccnc1)Nc1nnc(C[C@H]2C[C@@H]2Cc2nnc(NC(=O)Cc3cccnc3)s2)s1 (racemic) [Compound 5, N,N′-(5,5′-(trans-cyclopropane-1,2-diylbis(methylene))bis(1,3,4-thiadiazole-5,2-diyl))bis(2-(pyridin-3-yl)acetamide)] | 100 to 500 nM
O=C(Cc1cccs1)Nc1nnc(C[C@H]2C[C@@H]2Cc2nnc(NC(=O)Cc3cccs3)s2)s1 (racemic) [Compound 6, N,N′-(5,5′-(trans-cyclopropane-1,2-diylbis(methylene))bis(1,3,4-thiadiazole-5,2-diyl))bis(2-(thiophen-2-yl)acetamide)] | 100 to 500 nM
COc1cccnc1CC(=O)Nc1nnc([C@H]2CCC[C@H](c3nnc(NC(=O)Cc4ncccc4OC)s3)C2)s1 (racemic) [Compound 116] | < 100 nM
COc1ccc(CC(=O)Nc2nnc([C@@H]3CCC[C@@H](c4nnc(NC(=O)Cc5ccc(OC)cc5)s4)C3)s2)cc1 (stereo in doubt) [Compound 52, N,N′-(5,5′-((1S,3S)-cyclohexane-1,3-diyl)bis(1,3,4-thiadiazole-5,2-diyl))bis(2-(4-methoxyphenyl)acetamide)] | < 100 nM
O=C(Cc1ccccc1)Nc1nnc(CC2CC(Cc3nnc(NC(=O)Cc4ccccc4)s3)C2)s1 (stereo not shown) [Compound 8, N,N′-(5,5′-(cyclobutane-1,3-diylbis(methylene))bis(1,3,4-thiadiazole-5,2-diyl))bis(2-phenylacetamide)] | 100 to 500 nM
O=C(Cc1ccccc1)Nc1nnc([C@H]2CCC[C@H](c3nnc(NC(=O)Cc4ccccc4)s3)C2)s1 [Compound 9, N,N′-(5,5′-((1S,3S)-cyclohexane-1,3-diyl)bis(1,3,4-thiadiazole-5,2-diyl))bis(2-phenylacetamide)] | < 100 nM
O=C(Cc1ccccc1)Nc1nnc([C@@H]2CCC[C@H](c3nnc(NC(=O)Cc4ccccc4)s3)C2)s1 [Compound 10, N,N′-(5,5′-((1R,3S)-cyclohexane-1,3-diyl)bis(1,3,4-thiadiazole-5,2-diyl))bis(2-phenylacetamide)] | 1000 to 2000 nM
CC(=O)Nc1nnc([C@H]2CCC[C@H](c3nnc(NC(C)=O)s3)C2)s1 [Compound 12, N,N′-(5,5′-((1S,3S)-cyclohexane-1,3-diyl)bis(1,3,4-thiadiazole-5,2-diyl))diacetamide] | 500 to 1000 nM
CC(=O)Nc1nnc([C@@H]2CCC[C@@H](c3nnc(NC(=O)Cc4cn(C)c5ccccc45)s3)C2)s1 [Compound 13] | 100 to 500 nM
Cn1cc(CC(=O)Nc2nnc([C@@H]3CCC[C@H](c4nnc(NC(=O)Cc5cn(C)c6ccccc56)s4)C3)s2)c2ccccc21 [Compound 15, N,N′-(5,5′-((1R,3S)-cyclohexane-1,3-diyl)bis(1,3,4-thiadiazole-5,2-diyl))bis(2-(1-methyl-1H-indol-3-yl)acetamide)] | 500 to 1000 nM
Cn1cc(CC(=O)Nc2nnc([C@H]3CCC[C@H](c4nnc(NC(=O)Cc5cn(C)c6ccccc56)s4)C3)s2)c2ccccc21 [Compound 16, N,N′-(5,5′-((1S,3S)-cyclohexane-1,3-diyl)bis(1,3,4-thiadiazole-5,2-diyl))bis(2-(1-methyl-1H-indol-3-yl)acetamide)] | 100 to 500 nM
O=C(Cc1c[nH]c2ccccc12)Nc1nnc([C@H]2CCC[C@H](c3nnc(NC(=O)Cc4c[nH]c5ccccc45)s3)C2)s1 [Compound 22] | < 100 nM
O=C(Cc1c[nH]c2ccccc12)Nc1nnc([C@@H]2CCC[C@H](c3nnc(NC(=O)Cc4c[nH]c5ccccc45)s3)C2)s1 [Compound 23, N,N′-(5,5′-((1S,3R)-cyclohexane-1,3-diyl)bis(1,3,4-thiadiazole-5,2-diyl))bis(2-(1H-indol-3-yl)acetamide)] | 100 to 500 nM
O=C(Cc1cccc2[nH]ccc12)Nc1nnc([C@H]2CCC[C@H](c3nnc(NC(=O)Cc4cccc5[nH]ccc45)s3)C2)s1 [Compound 24, N,N′-(5,5′-((1S,3S)-cyclohexane-1,3-diyl)Obis(1,3,4-thiadiazole-5,2-diyl))bis(2-(1H-indol-4-yl)acetamide)] | < 100 nM
O=C(Cc1cccc2[nH]ccc12)Nc1nnc([C@@H]2CCC[C@H](c3nnc(NC(=O)Cc4cccc5[nH]ccc45)s3)C2)s1 [Compound 25, N,N′-(5,5′-((1S,3R)-cyclohexane-1,3-diyl)bis(1,3,4-thiadiazole-5,2-diyl))bis(2-(1H-indol-4-yl)acetamide)] | 500 to 1000 nM
CC(C)C(=O)Nc1nnc([C@@H]2CCC[C@@H](c3nnc(NC(=O)C(C)C)s3)C2)s1 [Compound 38] | 100 to 500 nM

The next lines start with the values.

IC50 | Structure (SMILES)
500 to 1000 nM | O=C(Cc1ccccn1)Nc1nnc(C[C@H]2C[C@@H]2Cc2nnc(NC(=O)Cc3ccccn3)s2)s1 (racemic) [Compound 3, N,N′-(5,5′-(trans-cyclopropane-1,2-diylbis(methylene))bis(1,3,4-thiadiazole-5,2-diyl))bis(2-(pyridin-2-yl)acetamide)]
2000 to 10000 nM | O=C(Cc1ccccn1)Nc1nnc(CC2CCC(Cc3nnc(NC(=O)Cc4ccccn4)s3)C2)s1 (stereo not shown) [Compound 4, N,N′-(5,5′-(cyclopentane-1,3-diylbis(methylene))bis(1,3,4-thiadiazole-5,2-diyl))bis(2-(pyridin-2-yl)acetamide)]
2000 to 10000 nM | O=C(Cc1ccccn1)Nc1nnc(CC2CC(Cc3nnc(NC(=O)Cc4ccccn4)s3)C2)s1 (stereo not shown) [Compound 7, N,N′-(5,5′-(cyclobutane-1,3-diylbis(methylene))bis(1,3,4-thiadiazole-5,2-diyl))bis(2-(pyridin-2-yl)acetamide)]
< 100 nM | O=C(Cc1ccccc1)Nc1nnc([C@@H]2CCC[C@@H](c3nnc(NC(=O)Cc4ccccc4)s3)C2)s1 [Compound 11, N,N′-(5,5′-((1R,3R)-cyclohexane-1,3-diyl)bis(1,3,4-thiadiazole-5,2-diyl))bis(2-phenylacetamide)]
1000 to 2000 nM | O=C(Cc1ccccc1)Nc1nnc([C@@H]2CC[C@H](c3nnc(NC(=O)Cc4ccccc4)s3)C2)s1 [Compound 18, N,N′-(5,5′-((1R,3S)-cyclopentane-1,3-diyl)bis(1,3,4-thiadiazole-5,2-diyl))bis(2-phenylacetamide)]
100 to 500 nM | O=C(Cc1ccccc1)Nc1nnc([C@@H]2CC[C@@H](c3nnc(NC(=O)Cc4ccccc4)s3)C2)s1 [Compound 19, N,N′-(5,5′-((1R,3R)-cyclopentane-1,3-diyl)bis(1,3,4-thiadiazole-5,2-diyl))bis(2-phenylacetamide)]
1000 to 2000 nM | O=C(Cc1ccccn1)Nc1nnc([C@@H]2CCC[C@H](c3nnc(NC(=O)Cc4ccccn4)s3)C2)s1 [Compound 20, N,N′-(5,5′-((1R,3S)-cyclohexane-1,3-diyl)bis(1,3,4-thiadiazole-5,2-diyl))bis(2-(pyridin-2-yl)acetamide)]
100 to 500 nM | CC(=O)Nc1nnc([C@@H]2CCC[C@@H](c3nnc(NC(=O)Cc4ccccn4)s3)C2)s1 [Compound 26]
500 to 1000 nM | O=C(Cc1ccccn1)Nc1nnc([C@@H]2CC[C@H](c3nnc(NC(=O)Cc4ccccn4)s3)C2)s1 [Compound 32]
< 100 nM | O=C(Cc1ccccn1)Nc1nnc([C@@H]2CC[C@@H](c3nnc(NC(=O)Cc4ccccn4)s3)C2)s1 [Compound 33]
1000 to 2000 nM | O=C(Cc1ccccc1)Nc1nnc(C2CCCC(c3nnc(NC(=O)Cc4ccccc4)s3)C2)s1 (stereo not shown) [Compound 36]

— patent publication US9029531B2 (Agios Pharmaceuticals, Inc., priority 2012, dated 2015)
